From patent publication US20100179158A1, “INHIBITORS OF CYCLIC AMP PHOSPHODIESTERASES” (priority 2007, published 2010)

Tests used:
PDE4D3 [1] = target: T1, PDE4D3 (Homo sapiens, UniProt Q08499); test: cAMP assay in yeast strain expressing PDE4D3; type: cell-based
T1 construct: targets used in the assays are full-length proteins (as opposed to simply the catalytic domain); expressed in transfected cells; host or cells: Schizosaccharomyces pombe, gene integrated at the cgs2 locus

PDE4B3 = target: T2, PDE4B3 (Mus musculus, UniProt Q8VBU5); test: cAMP assay in yeast strain expressing PDE4B3; type: cell-based, murine
T2 construct: targets used in the assays are full-length proteins (as opposed to simply the catalytic domain); expressed in transfected cells; host or cells: Schizosaccharomyces pombe, gene integrated at the cgs2 locus
T2 sequence (Q8VBU5 1-721): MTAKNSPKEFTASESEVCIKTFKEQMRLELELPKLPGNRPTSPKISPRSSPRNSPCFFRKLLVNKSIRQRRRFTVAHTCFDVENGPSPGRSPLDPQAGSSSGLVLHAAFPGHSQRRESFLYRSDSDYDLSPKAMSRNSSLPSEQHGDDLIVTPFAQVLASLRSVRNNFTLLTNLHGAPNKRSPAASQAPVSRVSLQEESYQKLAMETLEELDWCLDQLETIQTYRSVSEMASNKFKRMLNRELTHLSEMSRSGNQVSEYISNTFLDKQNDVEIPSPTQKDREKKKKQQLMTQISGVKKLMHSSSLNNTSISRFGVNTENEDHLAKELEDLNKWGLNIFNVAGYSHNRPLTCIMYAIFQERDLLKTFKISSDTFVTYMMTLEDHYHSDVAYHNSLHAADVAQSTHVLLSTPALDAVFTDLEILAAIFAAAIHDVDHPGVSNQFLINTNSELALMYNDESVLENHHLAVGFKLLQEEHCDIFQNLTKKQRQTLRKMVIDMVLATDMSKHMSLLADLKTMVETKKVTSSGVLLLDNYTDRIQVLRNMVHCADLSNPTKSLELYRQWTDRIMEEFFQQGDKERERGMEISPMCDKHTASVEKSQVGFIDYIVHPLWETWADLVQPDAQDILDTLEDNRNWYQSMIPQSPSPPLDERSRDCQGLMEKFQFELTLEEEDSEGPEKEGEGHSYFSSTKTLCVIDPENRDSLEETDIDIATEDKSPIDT

PDE4D2 = target: T3, PDE4D2 (Homo sapiens, UniProt Q08499); test: cAMP assay in yeast strain expressing PDE4D2; type: cell-based
T3 construct: targets used in the assays are full-length proteins (as opposed to simply the catalytic domain); expressed in transfected cells; host or cells: Schizosaccharomyces pombe
T3 sequence (Q08499 303-809): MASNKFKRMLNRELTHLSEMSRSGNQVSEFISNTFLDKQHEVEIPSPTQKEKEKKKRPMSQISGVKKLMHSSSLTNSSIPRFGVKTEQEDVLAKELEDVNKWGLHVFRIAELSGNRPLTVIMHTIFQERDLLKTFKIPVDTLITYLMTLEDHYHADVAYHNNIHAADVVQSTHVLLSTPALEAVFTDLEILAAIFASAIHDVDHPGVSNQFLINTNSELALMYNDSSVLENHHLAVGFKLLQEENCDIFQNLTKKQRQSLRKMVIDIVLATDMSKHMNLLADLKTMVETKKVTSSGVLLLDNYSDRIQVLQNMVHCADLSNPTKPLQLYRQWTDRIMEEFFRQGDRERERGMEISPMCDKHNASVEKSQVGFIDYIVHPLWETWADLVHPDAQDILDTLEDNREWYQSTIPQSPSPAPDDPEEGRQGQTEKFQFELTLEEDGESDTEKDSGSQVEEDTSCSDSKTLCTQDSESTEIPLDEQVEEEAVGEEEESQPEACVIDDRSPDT

[2] = system: PDE4A, PDE4B, PDE4D, PDE7A; test: Overall PDE inhibitor profile from the yeast assays (table footnotes, summary); type: cell-based
Method in brief: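 Fission yeast strains expressing full-length PDEs with an fbp1-ura4 reporter, pregrown in EMM with 0–2.5 mM cAMP (or 0.5 or 1.0 mM cGMP), then grown 48 h at 30° C in 5FOA medium with 100 nl of compound pinned per well (10 mM stocks). Growth read as OD600; composite Z scores calculated.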

PDE4D3 [3] = target: T1, PDE4D3; test: Fission yeast 5FOA growth assay, strain expressing PDE4D3; type: cell-based; conditions: 2 uM compound, 5FOA growth screen
Protocol: Cells were pregrown in EMM medium [MP Biomedicals (Solon, OH), 3% glucose, filter-sterilized to avoid carmelization, which would introduce variability into the optical density of the medium] containing from 0 mM to 2.5 mM cAMP (or either 0.5 mM or 1.0 mM cGMP). This was to repress expression of the fbp1-ura4 reporter prior to exposure of cells to 5FOA medium. Cells were grown at 30° C. to exponential phase (approximately 10^7 cells/ml). Cells were collected by centrifugation and resuspended in 5FOA medium, and 25 μl were transferred to 384-well microtiter dishes (untreated, with flat clear bottoms) that had been pre-filled with 25 μl 5FOA medium and pre-pinned with 100 nl of compounds (stock solutions were generally 10 mM). Starting cell concentrations ranged from 0.5×10^5 to 4×10^5 cells/ml depending on the screening strain. […] Other positive control dishes contained 5 mM cAMP in the 5FOA medium for PDEs that lack appropriate control compounds. Cultures were grown for 48 hours at 30° C., sealed in an airtight container with moist paper towels to prevent evaporation. Optical densities (OD600) of cultures were measured using a microplate reader. Bioinformatic analysis of the results to determine composite Z scores was performed as previously described (1, 3).

PDE4A1 [4] = target: T4, PDE4A1 (Mus musculus, UniProt O89084); test: cAMP assay in yeast strain expressing PDE4A1; type: cell-based, murine
T4 construct: targets used in the assays are full-length proteins (as opposed to simply the catalytic domain); expressed in transfected cells; host or cells: Schizosaccharomyces pombe, gene integrated at the cgs2 locus
T4 sequence (O89084 1-610 isoform O89084-2): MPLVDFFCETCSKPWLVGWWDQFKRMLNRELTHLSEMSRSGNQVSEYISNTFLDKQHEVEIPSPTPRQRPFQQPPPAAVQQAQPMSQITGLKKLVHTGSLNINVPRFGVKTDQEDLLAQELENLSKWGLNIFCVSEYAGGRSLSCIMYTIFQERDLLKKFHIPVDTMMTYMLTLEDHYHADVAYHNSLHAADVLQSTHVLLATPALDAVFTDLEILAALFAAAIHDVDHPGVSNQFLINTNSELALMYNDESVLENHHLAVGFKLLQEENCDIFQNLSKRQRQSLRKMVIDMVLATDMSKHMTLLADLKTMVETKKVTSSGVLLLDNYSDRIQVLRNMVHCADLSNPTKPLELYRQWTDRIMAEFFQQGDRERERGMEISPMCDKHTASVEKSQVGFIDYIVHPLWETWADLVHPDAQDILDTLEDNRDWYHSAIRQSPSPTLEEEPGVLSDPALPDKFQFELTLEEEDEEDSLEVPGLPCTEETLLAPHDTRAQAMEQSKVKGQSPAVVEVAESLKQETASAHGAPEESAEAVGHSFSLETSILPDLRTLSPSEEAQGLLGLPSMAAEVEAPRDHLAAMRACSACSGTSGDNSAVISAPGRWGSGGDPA

PDE4D3 [5] = target: T1, PDE4D3; test: IC50 on PDE4D3; type: biochemical; conditions: read-out: IC50, PDE 4D3
PDE4A1 [6] = target: T4, PDE4A1; test: IC50 on PDE4A1; type: biochemical, murine; conditions: read-out: IC50, PDE 4A1

T1 sequence (Q08499 1-673 isoform Q08499-2): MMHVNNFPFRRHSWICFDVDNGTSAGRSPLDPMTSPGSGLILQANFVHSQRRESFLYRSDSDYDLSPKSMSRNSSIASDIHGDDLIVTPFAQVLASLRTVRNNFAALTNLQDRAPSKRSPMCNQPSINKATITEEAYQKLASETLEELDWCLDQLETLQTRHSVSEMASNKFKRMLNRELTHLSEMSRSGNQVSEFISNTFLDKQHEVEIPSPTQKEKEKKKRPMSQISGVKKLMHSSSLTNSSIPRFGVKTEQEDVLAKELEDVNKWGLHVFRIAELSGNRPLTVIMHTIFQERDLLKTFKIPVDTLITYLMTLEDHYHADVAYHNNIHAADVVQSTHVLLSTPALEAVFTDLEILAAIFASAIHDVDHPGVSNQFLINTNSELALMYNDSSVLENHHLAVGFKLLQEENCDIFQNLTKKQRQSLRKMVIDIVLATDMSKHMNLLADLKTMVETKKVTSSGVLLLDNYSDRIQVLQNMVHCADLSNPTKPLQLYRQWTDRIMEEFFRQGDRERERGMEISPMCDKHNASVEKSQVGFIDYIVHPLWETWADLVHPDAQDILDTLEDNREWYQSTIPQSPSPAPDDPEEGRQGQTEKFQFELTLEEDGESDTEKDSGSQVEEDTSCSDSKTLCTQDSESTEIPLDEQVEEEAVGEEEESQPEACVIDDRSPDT

| SMILES | cAMP Response (% rolipram), PDE 4D3 (PDE4D3 [1]) | cAMP Response (% rolipram), PDE 4B3 (PDE4B3) | cAMP Response (% rolipram), PDE 4D2 (PDE4D2) | 2 Assay (2 uM), PDE 4D3 (PDE4D3 [3]) | cAMP Response (% rolipram), PDE 4A1 (PDE4A1 [4]) | IC50 (PDE4D3 [5]) | IC50 (PDE4A1 [6]) | PDE inhibitor profile in words (table footnote / summary) [2] |
| --- | --- | --- | --- | --- | --- | --- | --- | --- |
| COC(=O)C1=C(C)N(c2ccccc2F)C(=O)/C1=C\c1cccc(OC)c1O [2008, C21] | – | – | – | – | – | – | – | (2) Strong PDE4A, 4B inhibitor |
| COC(=O)C1=C(C)N(c2ccccc2)/C(=C/c2cccs2)C1=O [2008, K19] | – | – | – | – | – | – | – | (1) No activity under conditions used |
| COC(=O)C1=C(C)N(c2ccc(C(C)C)cc2)C(=O)/C1=C\c1cccs1 [2008, O19] | – | – | – | – | – | – | – | (1) No activity under conditions used |

Continued, in another order:

| cAMP Response (% rolipram), PDE 4D3 (PDE4D3 [1]) | cAMP Response (% rolipram), PDE 4B3 (PDE4B3) | cAMP Response (% rolipram), PDE 4D2 (PDE4D2) | 2 Assay (2 uM), PDE 4D3 (PDE4D3 [3]) | cAMP Response (% rolipram), PDE 4A1 (PDE4A1 [4]) | IC50 (PDE4D3 [5]) | IC50 (PDE4A1 [6]) | SMILES | PDE inhibitor profile in words (table footnote / summary) [2] |
| --- | --- | --- | --- | --- | --- | --- | --- | --- |
| 12.00 % rolipram | 51.00 % rolipram | ND ND ND 34.00 ND % rolipram | 42.32 | 54.00 % rolipram | – | – | COC(=O)C1=C(C)N(C2CCCCC2)C(=O)/C1=C\c1cccs1 [Compound 22] | (4) Strong PDE4A, 4B, 7 inhibitor; Weak PDE4D inhibitor |
| – | – | – | – | – | 200 nM | 650 nM | Cc1ccc2c(c1)c1nc3ccccc3nc1n2C(C)C [Compound 41] | – |
| 8.00 % rolipram | 71.00 % rolipram | ND ND ND 11.00 ND % rolipram | 0.00 | 78.00 % rolipram | 100 nM | 100 nM | COC(=O)C1=C(C)N(c2ccccc2Cl)C(=O)/C1=C\c1cccs1 [Compound 27] | (3) Strong PDE4A, 4B inhibitor |
